From patent US11304929B2, “Tosylacetate based compounds and derivatives thereof as PHGDH inhibitors” (priority 2017, dated 2022)
pIC50: −log10 of the molar value. Read-outs that look alike come from different tables or passages of the source.

Biological target: PHGDH (Homo sapiens (Human), UniProt O43175)
Experiment: 3-Phosphoglycerate Dehydrogenase (PHGDH) Fluorescence Intensity Assay, run at two NAD/3-PG ratios: PHGDH_HIGH_NAD/3-PG (250 μM NAD/500 μM 3-PG) and PHGDH_500_NAD/3-PG (500 μM NAD/500 μM 3-PG)
Format: biochemical
[1] = 250 μM NAD/500 μM 3-PG, read-out: IC50 (PHGDH_HIGH_NAD/3-PG)
[2] = 500 μM NAD/500 μM 3-PG, read-out: IC50 (PHGDH_500_NAD/3-PG)

PHGDH, sequence (O43175 2-533 limits assumed): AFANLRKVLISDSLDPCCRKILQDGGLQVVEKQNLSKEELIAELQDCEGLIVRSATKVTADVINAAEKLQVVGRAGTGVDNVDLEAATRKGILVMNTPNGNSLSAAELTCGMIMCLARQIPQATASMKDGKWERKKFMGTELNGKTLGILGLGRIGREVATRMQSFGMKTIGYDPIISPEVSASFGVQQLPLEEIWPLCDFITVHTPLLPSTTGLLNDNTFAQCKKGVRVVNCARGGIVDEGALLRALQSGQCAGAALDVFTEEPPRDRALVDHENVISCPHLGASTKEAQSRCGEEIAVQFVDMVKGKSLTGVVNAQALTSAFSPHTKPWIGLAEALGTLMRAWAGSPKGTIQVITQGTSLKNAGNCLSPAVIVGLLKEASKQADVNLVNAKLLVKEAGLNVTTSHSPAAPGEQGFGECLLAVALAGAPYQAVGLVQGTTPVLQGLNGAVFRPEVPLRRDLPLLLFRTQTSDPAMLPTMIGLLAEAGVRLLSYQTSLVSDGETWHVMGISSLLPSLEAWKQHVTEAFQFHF

Row | Structure (SMILES) | pIC50 [1] | pIC50 [2]
1 | CC(C)OC(=O)CS(=O)(=O)c1ccc([C@@H](CO)NC(=O)c2cc3c(Cl)cc(N4CCN(C)CC4)cc3n2C)cc1 [Example 01-040, propan-2-yl 2-{4-[(1S)-1-{[4-chloro-1-methyl-6-(4-methylpiperazin-1-yI)-1H-indol-2-yl]formamido}-2-hydroxyethyl]benzenesulfonyl}acetate] | 6.01 | 
2 | C[C@@H](NC(=O)c1cc(-c2ccc(F)cc2)nn1C)c1ccc(S(=O)(=O)C(C)(C)C(=O)O)cc1 [Example 08-001, 2-{4-[(1R)-1-{[3-(4-fluorophenyl)-1-methyl-1H-pyrazol-5-yl]formamido}ethyl]benzenesulfonyl}-2-methylpropanoic acid] | 6.79 | 
3 | Cc1cc2c(cc(C(=O)N[C@H](CO)c3ccc([S+]([O-])CC(=O)O)cc3)n2C)c(Cl)c1Cl (stereo partly drawn) [Example 12-003, 2-{4-[(1S)-1-[(4,5-dichloro-1,6-dimethyl-1H-indol-2-yl)formamido]-2-hydroxyethyl]benzenesulfinyl}acetic acid] | 8.52 | 8.30
4 | CC(C(=O)O)S(=O)(=O)c1ccc([C@@H](C)NC(=O)c2cc3cc(Cl)ccc3n2C)cc1 (stereo partly drawn) [Example 07-009, 2-{4-[(1R)-1-[(5-chloro-1-methyl-1H-indol-2-yl)formamido]ethyl]benzenesulfonyl}propanoic acid] | 6.72 | 
5 | C#Cc1cc(Cl)c2cc(C(=O)NC(C)c3ccc(S(=O)(=O)CC(=O)O)cc3)n(C)c2c1 (centres unmarked) [Example 03-007, 2-(4-{1-[(4-chloro-6-ethynyl-1-methyl-1H-indol-2-yl)formamido]ethyl}benzenesulfonyl)acetic acid] | 7.54 | 
6 | C[C@@H](NC(=O)c1cc2c(Cl)cc(-c3cnn(C)c3)cc2n1C)c1ccc(S(=O)(=O)CC(=O)O)cc1 [Example 03-004, 2-{4-[(1R)-1-{[4-chloro-1-methyl-6-(1-methyl-1H-pyrazol-4-yl)-1H-indol-2-yl]formamido}ethyl]benzenesulfonyl}acetic acid] | 7.70 | 7.54
7 | COC(=O)CS(=O)(=O)c1ccc([C@H](C)NC(=O)c2cc(-c3ccccc3)nn2C)cn1 [Example 02-009, methyl 2-({5-[(1S)-1-[(1-methyl-3-phenyl-1H-pyrazol-5-yl)formamido]ethyl]pyridin-2-yl}sulfonyl)acetate] | < 4.00 | 
8 | Cc1cc2c(cc(C(=O)N[C@H](CO)c3ccc(S(=O)(=O)CC(=O)OCCO)cc3)n2C)c(F)c1F [Example 09-041, 2-hydroxyethyl 2-{4-[(1S)-1-[(4,5-difluoro-1,6-dimethyl-1H-indol-2-yl)formamido]-2-hydroxyethyl]benzenesulfonyl}acetate] |  | 6.81
9 | Cc1cc(Cl)c2cc(C(=O)N[C@H](CO)c3ccc(S(=O)(=O)CC(=O)OC(C)C)cc3)n(C)c2c1 [Example 01-038, propan-2-yl 2-{4-[(1S)-1-[(4-chloro-1,6-dimethyl-1H-indol-2-yl)formamido]-2-hydroxyethyl]benzenesulfonyl}acetate] | 6.58 | 
10 | CC(C)OC(=O)C(C)(C)S(=O)(=O)c1ccc([C@@H](CO)NC(=O)c2cc(-c3ccc(F)cc3)nn2C)cc1 [Example 06-006, propan-2-yl 2-{4-[(1S)-1-{[3-(4-fluorophenyl)-1-methyl-1H-pyrazol-5-yl]formamido}-2-hydroxyethyl]benzenesulfonyl}-2-methylpropanoate] | 4.84 | 
11 | Cc1cc2c(cc(C(=O)N[C@H](CO)c3ccc(S(=O)(=O)CC(=O)OC4CCOCC4)cc3)n2C)c(F)c1F [Example 09-037, oxan-4-yl 2-{4-[(1S)-1-[(4,5-difluoro-1,6-dimethyl-1H-indol-2-yl)formamido]-2-hydroxyethyl]benzenesulfonyl}acetate] |  | 6.24
12 | C[C@@H](NC(=O)c1cc2cc(Cl)ccc2n1C)c1ccc(S(=O)(=O)[C@@H](C)C(=O)O)cc1 [Example 07-006, (2S)-2-{4-[(1R)-1-[(5-chloro-1-methyl-1H-indol-2-yl)formamido]ethyl]benzenesulfonyl}propanoic acid] | 6.62 | 
13 | Cc1cc(Cl)c2cc(C(=O)N[C@H](CO)c3ccc(S(=O)(=O)CC(=O)OC(C)C)cc3)n(C)c2n1 [Example 01-034, propan-2-yl 2-{4-[(1S)-1-({4-chloro-1,6-dimethyl-1H-pyrrolo[2,3-b]pyridin-2-yl}formamido)-2-hydroxyethyl]benzenesulfonyl}acetate] | 5.94 | 
14 | Cc1cc2c(cc(C(=O)N[C@H](CO)c3ccc([S@@+]([O-])CC(=O)O)cc3)n2C)c(F)c1F [Example 12-010, 2-[(S)-4-[(1S)-1-[(4,5-difluoro-1,6-dimethyl-1H-indol-2-yl)formamido]-2-hydroxyethyl]benzenesulfinyl]acetic acid] |  | 8.00
15 | CC(=O)N1CCC(C(=O)O)(S(=O)(=O)c2ccc([C@@H](C)NC(=O)c3cc4c(Cl)c(Cl)c(C)cc4n3C)cc2)CC1 [Example 07-016, 1-acetyl-4-{4-[(1R)-1-[(4,5-dichloro-1,6-dimethyl-1H-indol-2-yl)formamido]ethyl]benzenesulfonyl}piperidine-4-carboxylic acid] |  | 7.68
16 | COC(=O)CS(=O)(=O)c1ccc([C@@H](C)NC(=O)c2cc3c(Cl)cc(C)c(C)c3n2C)cc1 [Example 01-015, methyl 2-{4-[(1R)-1-[(4-chloro-1,6,7-trimethyl-1H-indol-2-yl)formamido]ethyl]benzenesulfonyl}acetate] | 6.23 | 

Row | Structure (SMILES) | pIC50 [1] | pIC50 [2]
17 | Cc1cc(Cl)c2cc(C(=O)N[C@H](C)c3ccc(S(=O)(=O)C(C)C(=O)O)cc3)n(C)c2c1 (stereo partly drawn) [Example 07-003, 2-{4-[(1R)-1-[(4-chloro-1,6-dimethyl-1H-indol-2-yl)formamido]ethyl]benzenesulfonyl}propanoic acid] | 8.10 | 
18 | Cc1cc2c(cc(C(=O)N[C@H](CO)c3ccc(S(=O)(=O)CC(=O)OCC(C)(C)CO)cc3)n2C)c(F)c1F [Example 09-042, 3-hydroxy-2,2-dimethylpropyl 2-{4-[(1S)-1-[(4,5-difluoro-1,6-dimethyl-1H-indol-2-yl)formamido]-2-hydroxyethyl]benzenesulfonyl}acetate] |  | 6.29
19 | C[C@@H](NC(=O)c1cc2cc(Cl)ccc2n1C)c1ccc(S(=O)(=O)C(C)(C)C(=O)O)cc1 [Example 07-007, 2-{4-[(1R)-1-[(5-chloro-1-methyl-1H-indol-2-yl)formamido]ethyl]benzenesulfonyl}-2-methylpropanoic acid] | 6.68 | 
20 | Cc1cc(-c2cc(C(=O)N[C@H](C)c3ccc(S(=O)(=O)CC(=O)OC(C)C)cc3)n(C)n2)ccc1F [Example 02-015, propan-2-yl 2-{4-[(1R)-1-{[3-(4-fluoro-3-methylphenyl)-1-methyl-1H-pyrazol-5-yl]formamido}ethyl]benzenesulfonyl}acetate] | 5.26 | 
21 | COC(=O)CS(=O)(=O)c1ccc([C@@H](C)NC(=O)c2cc3cc(Cl)ccc3n2C)cc1 [Example 01-019, methyl 2-{4-[(1R)-1-[(5-chloro-1-methyl-1H-indol-2-yl)formamido]ethyl]benzenesulfonyl}acetate] | 5.61 | 
22 | Cc1cc2c(cc(C(=O)N[C@H](CO)c3ccc(S(=O)(=O)CC(=O)O)cc3)n2C)c(F)c1F [Example 03-012, 2-{4-[(1S)-1-[(4,5-difluoro-1,6-dimethyl-1H-indol-2-yl)formamido]-2-hydroxyethyl]benzenesulfonyl}acetic acid] | 8.10 | 7.77
23 | C[C@@H](NC(=O)c1cc(-c2ccccc2)nn1C)c1ccc(S(=O)(=O)CC(=O)O)cc1 [Example 04-001, 2-{4-[(1R)-1-[(1-methyl-3-phenyl-1H-pyrazol-5-yl)formamido]ethyl]benzenesulfonyl}acetic acid] | 6.84 | 
24 | Cc1cc2c(cc(C(=O)N[C@H](CO)c3ccc(S(=O)(=O)CC(=O)O)cc3)n2C)c(Cl)c1F [Example 03-016, 2-{4-[(1S)-1-[(4-chloro-5-fluoro-1,6-dimethyl-1H-indol-2-yl)formamido]-2-hydroxyethyl]benzenesulfonyl}acetic acid] | 8.30 | 8.15
25 | COC(=O)C[S+]([O-])c1ccc([C@@H](CO)NC(=O)c2cc3c(Cl)c(Cl)c(C)cc3n2C)cc1 (stereo partly drawn) [Example 11-004, methyl 2-{4-[(1S)-1-[(4,5-dichloro-1,6-dimethyl-1H-indol-2-yl)formamido]-2-hydroxyethyl]benzenesulfinyl}acetate] | 7.01 | 6.71
26 | CCCCOC(=O)CS(=O)(=O)c1ccc([C@@H](C)NC(=O)c2cc3c(Cl)cc(C)cc3n2C)cc1 [Example 09-009, butyl 2-{4-[(1R)-1-[(4-chloro-1,6-dimethyl-1H-indol-2-yl)formamido]ethyl]benzenesulfonyl}acetate] | 5.43 | 
27 | CC(C)OC(=O)CS(=O)(=O)c1ccc([C@@H](C)NC(=O)c2cc(-c3ccc(F)c(F)c3)nn2C)cc1 [Example 02-016, propan-2-yl 2-{4-[(1R)-1-{[3-(3,4-difluorophenyl)-1-methyl-1H-pyrazol-5-yl]formamido}ethyl]benzenesulfonyl}acetate] | < 4.70 | 
28 | Cc1cc2c(cc(C(=O)N[C@H](CO)c3ccc(S(=O)(=O)C(C)(C)C(=O)O)cc3)n2C)c(Cl)c1Cl [Example 07-014, 2-{4-[(1S)-1-[(4,5-dichloro-1,6-dimethyl-1H-indol-2-yl)formamido]-2-hydroxyethyl]benzenesulfonyl}-2-methylpropanoic acid] | 8.40 | 8.22
29 | Cc1cc2c(cc(C(=O)N[C@H](C)c3ccc(S(=O)(=O)CC(=O)OC(C)C)cc3)n2C)c(Cl)c1Cl [Example 01-037, propan-2-yl 2-{4-[(1R)-1-[(4,5-dichloro-1,6-dimethyl-1H-indol-2-yl)formamido]ethyl]benzenesulfonyl}acetate] | 5.47 | 
30 | COCCC(C(=O)O)S(=O)(=O)c1ccc([C@@H](C)NC(=O)c2cc3c(Cl)cc(C)cc3n2C)cc1 (stereo partly drawn) [Example 07-010, 2-{4-[(1R)-1-[(4-chloro-1,6-dimethyl-1H-indol-2-yl)formamido]ethyl]benzenesulfonyl}-4-methoxybutanoic acid] | 7.68 | 
31 | Cc1cc(Cl)c2cc(C(=O)N[C@H](C)c3ccc([S+]([O-])CC(=O)O)cc3)n(C)c2c1 (stereo partly drawn) [Example 12-004, 2-{4-[(1R)-1-[(4-chloro-1,6-dimethyl-1H-indol-2-yl)formamido]ethyl]benzenesulfinyl}acetic acid] | 7.96 | 7.74
